Test results published in ChEMBL document CHEMBL3751773, “A minimally cytotoxic CD4 mimic as an HIV entry inhibitor” (Bioorg Med Chem Lett, 2016).

Columns and labels:
[1] = Cytotoxicity against mock-infected human PM1 cells expressing CCR5 by WST method; format: cell-based
PM1 = assay: Induction of conformational change in R5-tropic HIV1 cYTA48P gp120 infected in human PM1 cells assessed as increase in binding affinity to monoclonal antibody 4C11 at 100 uM after 15 mins by FACS analysis; format: cell-based; conditions: Human immunodeficiency virus 1
[2] = tested on: Human immunodeficiency virus 1; assay: Antiviral activity against R5-tropic HIV1 cYTA48P infected in TZM-bl cells by single round assay; format: functional, organism-based; conditions: Human immunodeficiency virus 1, cYTA48P
[3] = Initial concentration in rhesus macaque blood at 75 mg, iv after 0 to 24 hrs by HPLC analysis; format: ADME, organism-based, Macaca mulatta; conditions: rhesus monkey
[4] = Volume of distribution in rhesus macaque plasma at 75 mg, iv after 0 to 24 hrs by HPLC analysis; format: ADME, organism-based, Macaca mulatta; conditions: rhesus monkey
[5] = Half life in rhesus macaque plasma at 75 mg, iv after 0 to 24 hrs by HPLC analysis; format: ADME, organism-based, Macaca mulatta; conditions: rhesus monkey
Rhesus monkey [6] = assay: Toxicity in rhesus macaque assessed as decrease in body temperature at 77.8 mg, iv after 24 hrs; format: organism-based, Macaca mulatta; conditions: in vivo
[7] = Toxicity in iv dosed rhesus macaque; format: organism-based, Macaca mulatta; conditions: rhesus monkey, in vivo
Rhesus monkey [8] = assay: Toxicity in rhesus macaque assessed as survival at 77.8 mg, iv measured after 6 months; format: organism-based, Macaca mulatta; conditions: in vivo, 4383 h
Rhesus monkey [9] = assay: Toxicity in rhesus macaque assessed as decrease in body temperature at 77.8 mg, iv measured within 2 hrs; format: organism-based, Macaca mulatta; conditions: in vivo
Rhesus monkey [10] = assay: Toxicity in rhesus macaque assessed as mydriasis at 77.8 mg, iv measured within 2 hrs; format: organism-based, Macaca mulatta; conditions: in vivo

SMILES: O=C(Nc1ccc2c(c1)OCO2)C(=O)NC1CC2(CCCCC2)NC2(CCCCC2)C1 (stereo not given)
- CC50 [1]: > 200 µM
- Flu intensity (PM1): 6.93
- IC50 [2]: 1.13 µM

SMILES: CC1(C)CC(NC(=O)C(=O)Nc2ccc3c(c2)OCO3)CC(C)(C)N1 [listing 1 of 2 here]
- CC50 [1]: > 300 µM
- C0 [3]: 2.09 µg/mL
- Vd [4]: 37.2 L
- half-life [5]: 1.75 h
- IC50 [2]: 6.2 µM

SMILES: CCOC(=O)C1CCN(NC(=O)C(=O)Nc2ccc3c(c2)OCO3)CC1
- CC50 [1]: > 200 µM
- Flu intensity (PM1): 7.83
- IC50 [2]: > 100 µM

SMILES: CC1(C)CC(NC(=O)C(=O)Nc2ccc(Cl)cc2)CC(C)(C)N1
- CC50 [1]: 70.4 µM
- Flu intensity (PM1): 8.91
- IC50 [2]: 0.63 µM

SMILES: CC1(C)CC(NC(=O)C(=O)Nc2ccc3c(c2)OCO3)CC(C)(C)N1.Cl
- Activity (Rhesus monkey [6]): Non-toxic
- MTD [7]: 12.5 mg/kg
- Activity (Rhesus monkey [8]): Non-toxic
- Activity (Rhesus monkey [9]): Toxic
- Activity (Rhesus monkey [10]): Toxic

SMILES: CC1(C)CC(NC(=O)C(=O)Nc2ccc3c(c2)OCO3)CC(C)(C)N1 [listing 2 of 2 here]
- Flu intensity (PM1): 12.3
